Conditions: Hot wire method

FC(F)(F)/C=C/Cl [(E)-1-chloro-3,3,3-trifluoroprop-1-ene]
Conditions	thermal conductivity [W/m/K]
362.89 K, 26388 kPa, Liquid	0.07962
362.94 K, 8395 kPa, Liquid	0.06981
362.97 K, 8410 kPa, Liquid	0.06989
363.01 K, 5513 kPa, Liquid	0.06793
363.02 K, 5522 kPa, Liquid	0.06801
363.04 K, 15375 kPa, Liquid	0.07401
363.05 K, 588 kPa, Fluid (supercritical or subcritical phases)	0.01642
363.05 K, 3030 kPa, Liquid	0.06616
363.06 K, 3018 kPa, Liquid	0.06615
363.06 K, 18623 kPa, Liquid	0.07592
363.07 K, 781 kPa, Liquid	0.06438
363.07 K, 11657 kPa, Liquid	0.07182
363.07 K, 11679 kPa, Liquid	0.07186
363.07 K, 15350 kPa, Liquid	0.07393
363.07 K, 18631 kPa, Liquid	0.07609
363.08 K, 794 kPa, Liquid	0.06441
363.17 K, 485 kPa, Fluid (supercritical or subcritical phases)	0.01636
363.25 K, 8386 kPa, Liquid	0.0699
363.25 K, 8410 kPa, Liquid	0.06983
363.28 K, 18567 kPa, Liquid	0.07546
363.3 K, 5515 kPa, Liquid	0.0679
363.3 K, 15333 kPa, Liquid	0.0739
363.3 K, 18619 kPa, Liquid	0.07574
363.31 K, 369 kPa, Fluid (supercritical or subcritical phases)	0.01625
363.31 K, 5517 kPa, Liquid	0.06789
363.32 K, 15362 kPa, Liquid	0.07394
363.34 K, 11659 kPa, Liquid	0.07179
363.35 K, 3013 kPa, Liquid	0.06606
363.35 K, 11674 kPa, Liquid	0.07181
363.36 K, 3021 kPa, Liquid	0.06613
363.38 K, 789 kPa, Liquid	0.06433
363.39 K, 791 kPa, Liquid	0.06436
363.56 K, 18588 kPa, Liquid	0.07568
363.56 K, 18589 kPa, Liquid	0.07561
363.85 K, 18555 kPa, Liquid	0.07553
363.86 K, 18574 kPa, Liquid	0.07558
381.79 K, 728 kPa, Fluid (supercritical or subcritical phases)	0.01756
381.91 K, 529 kPa, Fluid (supercritical or subcritical phases)	0.01757
381.98 K, 885 kPa, Fluid (supercritical or subcritical phases)	0.0177
381.99 K, 883 kPa, Fluid (supercritical or subcritical phases)	0.01771
382.06 K, 727 kPa, Fluid (supercritical or subcritical phases)	0.0176
382.19 K, 530 kPa, Fluid (supercritical or subcritical phases)	0.01766
382.26 K, 884 kPa, Fluid (supercritical or subcritical phases)	0.01776
382.27 K, 885 kPa, Fluid (supercritical or subcritical phases)	0.01778
382.29 K, 1304 kPa, Liquid	0.05933
382.3 K, 1303 kPa, Liquid	0.0594
382.3 K, 7889 kPa, Liquid	0.06498
382.3 K, 7898 kPa, Liquid	0.065
382.32 K, 1195 kPa, Fluid (supercritical or subcritical phases)	0.01851
382.32 K, 1196 kPa, Fluid (supercritical or subcritical phases)	0.01849
382.35 K, 727 kPa, Fluid (supercritical or subcritical phases)	0.01767
382.35 K, 20108 kPa, Liquid	0.07266
382.36 K, 20093 kPa, Liquid	0.07261
382.37 K, 6276 kPa, Liquid	0.06375
382.38 K, 6283 kPa, Liquid	0.06377
382.38 K, 35584 kPa, Liquid	0.0803
382.39 K, 35567 kPa, Liquid	0.08024
382.4 K, 16804 kPa, Liquid	0.07075
382.41 K, 16825 kPa, Liquid	0.07099
382.42 K, 33043 kPa, Liquid	0.07905
382.42 K, 33046 kPa, Liquid	0.07909
382.44 K, 13721 kPa, Liquid	0.06888
382.45 K, 13744 kPa, Liquid	0.06889
382.46 K, 28331 kPa, Liquid	0.07696
382.47 K, 4293 kPa, Liquid	0.06211
382.47 K, 28334 kPa, Liquid	0.07681
382.48 K, 1001 kPa, Fluid (supercritical or subcritical phases)	0.01789
382.48 K, 4301 kPa, Liquid	0.06219
382.49 K, 529 kPa, Fluid (supercritical or subcritical phases)	0.01769
382.49 K, 1000 kPa, Fluid (supercritical or subcritical phases)	0.01794
382.5 K, 2615 kPa, Liquid	0.06083
382.51 K, 2614 kPa, Liquid	0.06065
